Measured values: patent US6646124B2, “Substituted 4-oxo-napthyridine-3-carboxamides: GABA brain receptor ligands” (Neurogen Corporation, priority 1997, dated 2003)

For `CCSCCNC(=O)c1c[nH]c2ccc(OC)nc2c1=O` [Compound 5, N-[2-(ethylthio)ethyl] 6-methoxy-4-oxo-1,4-dihydro-1,5-napththyridine-3-carboxamide], the melting point was 257 to 259 °C (dec.).

First: CCOc1ccc2[nH]cc(C(=O)NCc3ccc4c(c3)OCO4)c(=O)c2n1 [Compound 9, N-Piperonyl 6-ethoxy-4-oxo-1,4-tetrahydro-1,5-naphthyridine-3-carboxamide]
Second: CCOc1ccc2[nH]cc(C(=O)NCC3CCCO3)c(=O)c2n1 (stereo not shown) [Compound 4, N-(2-Tetrahydrofuranyl)methyl 6-ethoxy-4-oxo-1,4-tetrahydro-1,5-naphthyridine-3-carboxamide]
The melting point of the first is lower: 190 °C for the first, 235 to 237 °C for the second.

In the case of `O=C(NCc1ccccc1F)c1c[nH]c2ccc(N3CCOCC3)nc2c1=O` [Compound 7, N-(2-Fluorobenzyl) 6-morpholino-4-oxo-1,4-tetrahydro-1,5-naphthyridine-3-carboxamide], the melting point is reported as 137 to 139 °C.
